{"source": "patent US7714017B2", "about": "“Carboxylic acid peri-substituted bicyclics for occlusive artery disease” (Decode Genetics, EHF, priority 2004, dated 2010)"}
{"biological_target": "T1, prostanoid EP3 receptors (Homo sapiens, UniProt P43115)", "T1 sequence (P43115 1-390)": "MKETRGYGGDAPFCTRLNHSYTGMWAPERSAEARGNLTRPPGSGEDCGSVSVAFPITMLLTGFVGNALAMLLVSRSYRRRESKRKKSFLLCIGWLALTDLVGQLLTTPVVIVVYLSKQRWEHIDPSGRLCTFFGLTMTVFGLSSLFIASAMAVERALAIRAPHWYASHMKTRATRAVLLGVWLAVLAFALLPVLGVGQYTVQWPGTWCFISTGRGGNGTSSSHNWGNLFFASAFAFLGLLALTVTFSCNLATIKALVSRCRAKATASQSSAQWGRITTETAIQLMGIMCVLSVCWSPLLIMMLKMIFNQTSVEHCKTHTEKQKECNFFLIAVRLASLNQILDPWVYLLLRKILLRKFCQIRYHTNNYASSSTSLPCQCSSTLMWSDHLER", "assay": "binding on prostanoid EP3 receptors (method of Abramovitz et al.)", "settings": "Chart 1, read-out: Activity (EP3 receptor binding IC50 class)", "description": "(§1) The compounds of the invention were assayed for their binding on prostanoid EP3 receptors according to the method of Abramovitz et al. [Bioch. Biophys. Acta, 1473, 285-293 (2000)]. […] Compounds with IC50<1 μM are shown as +++; compounds with IC50 1-10 μM are shown as ++; and compounds with IC50>10 μM are shown as +.\nas §1, with “Acta.” for “Acta,”", "units": {"IC50": "µM"}}
{"smiles": "O=C(O)/C=C/c1cnn2ccn(Cc3ccc4ccccc4c3)c12", "note": "[Compound A02, (E)-3-(1-Naphthalen-2-ylmethyl-1H-imidazo[1,2-b]pyrazol-7-yl)-acrylic acid]", "IC50": "1 to 10"}
{"smiles": "Cn1cc(/C=C/C(=O)O)c2c(Oc3ccc(F)cc3F)cccc21", "note": "[Compound A37, (E)-3-[4-(2,4-Difluoro-phenoxy)-1-methyl-1H-indol-3-yl]-acrylic acid]", "IC50": "< 1"}
{"smiles": "Cn1cc(/C=C/C(=O)O)c2c(Oc3ccc(F)cc3Cl)cccc21", "note": "[Compound A46, (E)-3-[4-(2-Chloro-4-fluoro-phenoxy)-1-methyl-1H-indol-3-yl]-acrylic acid]", "IC50": "1 to 10"}
{"smiles": "O=C(O)COc1cccc2oc(=O)n(Cc3ccc4c(c3)OCO4)c12", "note": "[Compound A05, (3-Benzo[1,3]dioxol-5-ylmethyl-2-oxo-2,3-dihydro-benzooxazol-4-yloxy)-acetic acid]", "IC50": "1 to 10"}
{"smiles": "CC12CCCC(/C=C/C(=O)O)=C1N(Cc1ccc3ccccc3c1)C(=O)C2", "note": "(stereo not drawn) [Compound A24, (E)-3-(3a-Methyl-1-naphthalen-2-ylmethyl-2-oxo-2,3,3a,4,5,6-hexahydro-1H-indol-7-yl)-acrylic acid]", "IC50": "1 to 10"}
{"smiles": "Cn1cc(/C=C/C(=O)O)c2c(Oc3ccc(Cl)cc3F)cccc21", "note": "[Compound A45, (E)-3-[4-(4-Chloro-2-fluoro-phenoxy)-1-methyl-1H-indol-3-yl]-acrylic acid]", "IC50": "< 1"}
{"smiles": "O=C(O)/C=C/c1cccc2c1N(Cc1ccc(F)c(F)c1)C(=O)C2=O", "note": "[Compound A60, (E)-3-[1-(3,4-Difluoro-benzyl)-2,3-dioxo-2,3-dihydro-1H-indol-7-yl]-acrylic acid]", "IC50": "1 to 10"}
{"smiles": "Cc1cn(Cc2ccc(Cl)cc2Cl)c2c(/C=C/C(=O)O)cc(F)cc12", "note": "[Compound A31, (E)-3-[1-(2,4-dichloro-benzyl)-5-fluoro-3-methyl-1H-indol-7-yl]-acrylic acid]", "IC50": "< 1"}
{"smiles": "COCc1cn(Cc2ccc(Cl)cc2Cl)c2c(/C=C/C(=O)O)cccc12", "note": "[Compound A12, (E)-3-[1-(2,4-Dichloro-benzyl)-3-methoxymethyl-1H-indol-7-yl]-acrylic acid]", "IC50": "< 1"}
{"smiles": "O=C(O)/C=C/c1cccc2c1N(Cc1ccc(Cl)cc1Cl)C(=O)C2(F)F", "note": "[Compound A20, (E)-3-[1-(2,4-Dichloro-benzyl)-3,3-difluoro-2-oxo-2,3-dihydro-1H-indol-7-yl]-acrylic acid]", "IC50": "1 to 10"}
{"smiles": "COc1cccc(CN2C(=O)CC3(C)CCCC(/C=C/C(=O)O)=C23)c1", "note": "(stereo not drawn) [Compound A29, (E)-3-[1-(3-Methoxy-benzyl)-3a-methyl-2-oxo-2,3,3a,4,5,6-hexahydro-1H-indol-7-yl]-acrylic acid]", "IC50": "< 1"}
{"smiles": "CC(=O)c1cn(Cc2ccc(Cl)cc2Cl)c2c(/C=C/C(=O)O)cccc12", "note": "[Compound A13, (E)-3-[3-Acetyl-1-(2,4-dichloro-benzyl)-1H-indol-7-yl]-acrylic acid]", "IC50": "1 to 10"}
{"smiles": "Cc1ccc(C)c(Cn2c(=O)oc3cccc(OCC(=O)O)c32)c1", "note": "[Compound A08, [3-(2,5-Dimethyl-benzyl)-2-oxo-2,3-dihydro-benzooxazol-4-yloxy]-acetic acid]", "IC50": "1 to 10"}
{"smiles": "O=C(O)CCc1cccc2ccn(Cc3ccc4ccccc4c3)c12", "note": "[Compound A58, 3-(1-Naphthalen-2-ylmethyl-1H-indol-7-yl)-propionic acid]", "IC50": "< 1"}
{"smiles": "O=C(O)CCc1csc2ncc(C=Cc3ccc4ccccc4c3)n12", "note": "(mixture of isomers) [Compound A23, 3-[5-((E)-2-Naphthalen-2-yl-vinyl)-imidazo[2,1-b]thiazol-3-yl]-propionic acid]", "IC50": "1 to 10"}
{"smiles": "O=C(O)/C=C/c1cccc2c1N(Cc1ccc3ccccc3c1)C(=O)C2=O", "note": "[Compound A56, (E)-3-(1-Naphthalen-2-ylmethyl-2,3-dioxo-2,3-dihydro-1H-indol-7-yl)-acrylic acid]", "IC50": "< 1"}
{"smiles": "CC12CCCC(/C=C/C(=O)O)=C1N(Cc1ccc(F)c(F)c1)C(=O)C2", "note": "(stereo not drawn) [Compound A30, (E)-3-[1-(3,4-Difluoro-benzyl)-3a-methyl-2-oxo-2,3,3a,4,5,6-hexahydro-1H-indol-7-yl]-acrylic acid]", "IC50": "1 to 10"}
{"smiles": "CN1C(=O)C(C(=O)Nc2ccc(Cl)cc2Cl)c2c(/C=C/C(=O)O)cccc21", "note": "(stereo not drawn) [Compound A33, (E)-3-[3-(2,4-Dichloro-phenylcarbamoyl)-1-methyl-2-oxo-2,3-dihydro-1H-indol-4-yl]-acrylic acid]", "IC50": "1 to 10"}
{"smiles": "Cc1cc2c(=O)n(C)c(=O)n(CCC(=O)O)c2n1Cc1ccc(Cl)cc1Cl", "note": "[Compound A63, 3-[7-(2,4-Dichloro-benzyl)-3,6-dimethyl-2,4-dioxo-2,3,4,7-tetrahydro-pyrrolo[2,3-d]pyrimidin-1-yl]-propionic acid]", "IC50": "1 to 10"}
{"smiles": "O=C(O)COc1cccc2oc(=O)n(Cc3ccc(Cl)cc3Cl)c12", "note": "[Compound A07]", "IC50": "1 to 10"}
{"smiles": "Cn1cc(/C=C/C(=O)O)c2c(Oc3ccc(Cl)cc3)cccc21", "note": "[Compound A41, (E)-3-[4-(4-Chloro-phenoxy)-1-methyl-1H-indol-3-yl]-acrylic acid]", "IC50": "1 to 10"}
{"smiles": "Cn1nc(NCC(=O)O)c2c(Oc3ccc4ccccc4c3)cccc21", "note": "[Compound A25, [1-Methyl-4-(naphthalen-2-yloxy)-1H-indazol-3-ylamino]-acetic acid]", "IC50": "< 1"}
{"smiles": "O=Cc1cn(Cc2ccc(Cl)cc2Cl)c2c(/C=C/C(=O)O)cccc12", "note": "[Compound A11, (E)-3-[1-(2,4-Dichloro-benzyl)-3-formyl-1H-indol-7-yl]-acrylic acid]", "IC50": "< 1"}
{"smiles": "CCOC(=O)C12CCCC(/C=C/C(=O)O)=C1N(Cc1ccc(Cl)cc1Cl)C(=O)C2", "note": "(stereo not drawn) [Compound A47, 7-((E)-2-Carboxy-vinyl)-1-(2,4-dichloro-benzyl)-2-oxo-1,2,3,4,5,6-hexahydro-indole-3a-carboxylic acid ethyl ester]", "IC50": "< 1"}
{"smiles": "O=C(O)/C=C/c1cccc2ccn(Cc3ccc4ccccc4c3)c12", "note": "[Compound A53, (E)-3-(1-Naphthalen-2-ylmethyl-1H-indol-7-yl)-acrylic acid]", "IC50": "< 1"}
{"smiles": "O=C(O)/C=C/c1cccc2c(CO)cn(Cc3ccc(Cl)cc3Cl)c12", "note": "[Compound A10, (E)-3-[1-(2,4-Dichloro-benzyl)-3-hydroxymethyl-1H-indol-7-yl]-acrylic acid]", "IC50": "1 to 10"}
{"smiles": "O=C(O)COc1cccc2oc(=O)n(Cc3ccc(Cl)c(Cl)c3)c12", "note": "[Compound A06, [3-(3,4-Dichloro-benzyl)-2-oxo-2,3-dihydro-benzooxazol-4-yloxy]-acetic acid]", "IC50": "1 to 10"}
{"smiles": "Cn1nc(NC(=O)c2ccc3ccccc3c2)c2c(/C=C/C(=O)O)cccc21", "note": "[Compound A26, (E)-3-{1-Methyl-3-[(naphthalene-2-carbonyl)-amino]-1H-indazol-4-yl}-acrylic acid]", "IC50": "1 to 10"}
{"smiles": "CC12CCCC(/C=C/C(=O)O)=C1N(Cc1cccc(F)c1)C(=O)C2", "note": "(stereo not drawn) [Compound A27, (E)-3-[1-(3-Fluoro-benzyl)-3a-methyl-2-oxo-2,3,3a,4,5,6-hexahydro-1H-indol-7-yl]-acrylic acid]", "IC50": "< 1"}
{"smiles": "CC12CCCC(/C=C/C(=O)O)=C1N(Cc1ccc(Cl)cc1Cl)C(=O)C2", "note": "(stereo not drawn) [Compound A32, (E)-3-[1-(2,4-Dichloro-benzyl)-3a-methyl-2-oxo-2,3,3a,4,5,6-hexahydro-1H-indol-7-yl]-acrylic acid]", "IC50": "< 1"}
{"smiles": "Cn1cc(/C=C/C(=O)O)c2c(Oc3ccc(F)c(Cl)c3)cccc21", "note": "[Compound A38, (E)-3-[4-(3-Chloro-4-fluoro-phenoxy)-1-methyl-1H-indol-3-yl]-acrylic acid]", "IC50": "1 to 10"}
{"smiles": "Cc1cn(Cc2ccc(Cl)cc2Cl)c2c(/C=C/C(O)(C(F)(F)F)C(F)(F)F)cc(F)cc12", "note": "[Compound A64, (E)-4-[1-(2,4-Dichloro-benzyl)-5-fluoro-3-methyl-1H-indol-7-yl]-1,1,1-trifluoro-2-trifluoromethyl-but-3-en-2-ol]", "IC50": "1 to 10"}
{"smiles": "O=C(O)C=Cc1cccc2c1N(Cc1ccc3ccccc3c1)C(=O)C2(O)C(F)(F)F", "note": "(stereo not drawn) [Compound A15, 3-(3-Hydroxy-1-naphthalen-2-ylmethyl-2-oxo-3-trifluoromethyl-2,3-dihydro-1H-indol-7-yl)-acrylic acid]", "IC50": "1 to 10"}
{"smiles": "CC1(C)C(=O)N(Cc2ccc(Cl)cc2Cl)c2c(/C=C/C(=O)O)cccc21", "note": "[Compound A19, (E)-3-[1-(2,4-Dichloro-benzyl)-3,3-dimethyl-2-oxo-2,3-dihydro-1H-indol-7-yl]-acrylic acid]", "IC50": "1 to 10"}
{"smiles": "Cc1cn(Cc2ccc(Cl)cc2Cl)c2c(/C=C/C(=O)O)cccc12", "note": "[Compound A09, (E)-3-[1-(2,4-Dichloro-benzyl)-3-methyl-1H-indol-7-yl]-acrylic acid]", "IC50": "< 1"}
{"smiles": "O=C(O)COc1cccc2ncn(Cc3ccc(Cl)cc3Cl)c12", "note": "[Compound A21, [3-(2,4-Dichloro-benzyl)-3H-benzoimidazol-4-yloxy]-acetic acid]", "IC50": "< 1"}
{"smiles": "CN(C)Cc1cn(Cc2ccc3ccccc3c2)c2c(/C=C/C(=O)O)cccc12", "note": "[Compound A55]", "IC50": "1 to 10"}
{"smiles": "Cn1cc(/C=C/C(=O)O)c2c(Oc3ccc(F)c(F)c3)cccc21", "note": "[Compound A42, (E)-3-[4-(3,4-Difluoro-phenoxy)-1-methyl-1H-indol-3-yl]-acrylic acid]", "IC50": "1 to 10"}
{"smiles": "Cn1cc(/C=C/C(=O)O)c2c(Oc3ccc4ccccc4c3)cccc21", "note": "[Compound A44, (E)-3-[1-Methyl-4-(naphthalen-2-yloxy)-1H-indol-3-yl]-acrylic acid]", "IC50": "< 1"}
